Test results from the supplement of paper PMC11061612.

What was measured:
[1] = test system: COR-L88 (Small Cell Lung Carcinoma); assay: Bliss excess, mean over the matrix (fraction); higher = more synergy
Method in brief: (§1)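 After 24 hours at 37°C and 5% CO2 in 1536-well plates, cells in DMEM/F12 or RPMI plus 10% FBS received two-drug dose matrices for 72 hours. Viability came from CellTiter-Glo 2.0 luminescence and was scaled as inhibition, anchored at 0 by vehicle wells and at 1 by blank wells. Combination Emax is taken as the second-highest inhibition in the matrix, and Bliss excess as the observed combination effect less EA + EB − EA·EB, with EA and EB the single-agent effects.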

[2] = test system: CPC-N (Small Cell Lung Carcinoma); assay: as above
Method in brief: as §1

[3] = test system: HPAF-II (Pancreatic Carcinoma); assay: as above
Method in brief: as §1

[4] = test system: LCLC-103H (Non-Small Cell Lung Carcinoma); assay: as above
Method in brief: as §1

[5] = test system: MONO-MAC-6 (Acute Myeloid Leukemia); assay: as above
Method in brief: as §1

[6] = test system: SK-CO-1 (Colorectal Carcinoma); assay: as above
Method in brief: as §1

[7] = test system: C-33-A (Cervical Carcinoma); assay: combination Emax (second highest fraction inhibited in the dose matrix, 72 h); higher = more inhibition; extreme values may be limits of the assay
Method in brief: as §1

ES6 (Ewing's Sarcoma) = assay: as above
Method in brief: as §1

GAK (Melanoma) = assay: as above
Method in brief: as §1

IST-MEL1 (Melanoma) = assay: as above
Method in brief: as §1

[8] = test system: LCLC-103H (Non-Small Cell Lung Carcinoma); assay: as above
Method in brief: as §1

[9] = test system: LS-1034 (Colorectal Carcinoma); assay: as above
Method in brief: as §1

[10] = test system: MDA-MB-415 (Breast Carcinoma); assay: as above
Method in brief: as §1

[11] = test system: MONO-MAC-6 (Acute Myeloid Leukemia); assay: as above
Method in brief: as §1

[12] = test system: NAMALWA (Burkitt's Lymphoma); assay: as above
Method in brief: as §1

NCI-H226 (Mesothelioma) = assay: as above
Method in brief: as §1

[13] = test system: RCC-JW (Kidney Carcinoma); assay: as above
Method in brief: as §1

[14] = test system: SCC-4 (Oral Cavity Carcinoma); assay: as above
Method in brief: as §1

[15] = test system: SK-CO-1 (Colorectal Carcinoma); assay: as above
Method in brief: as §1

[16] = test system: SKG-IIIa (Cervical Carcinoma); assay: as above
Method in brief: as §1
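Wherever Bliss excess, mean over the matrix is given: after 72 h of two-drug dosing.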

Compound	Bliss excess [1]	Bliss excess [2]	Bliss excess [3]	Bliss excess [4]	Bliss excess [5]	Bliss excess [6]	combination Emax [7]	combination Emax (ES6 (Ewing's Sarcoma))	combination Emax (GAK (Melanoma))	combination Emax (IST-MEL1 (Melanoma))	combination Emax [8]	combination Emax [9]	combination Emax [10]	combination Emax [11]	combination Emax [12]	combination Emax (NCI-H226 (Mesothelioma))	combination Emax [13]	combination Emax [14]	combination Emax [15]	combination Emax [16]
O=C(c1cc(Cc2n[nH]c(=O)c3ccccc23)ccc1F)N1CCN(C(=O)C2CC2)CC1 [Olaparib] + CN(CC[C@H](CSC1=CC=CC=C1)NC2=C(C=C(C=C2)S(=O)(=O)NC(=O)C3=CC=C(C=C3)N4CCC(CC4)[C@H](C5=CC=CC=C5C6=CC=C(C=C6)Cl)O)S(=O)(=O)C(F)(F)F)CCO [AZD4320] (first compound max 10 µM, 7x7, partner max 1 µM)	0.0077	-0.0247	-0.0399	-0.0339	0.0291	0.0256	0.386	0.237	0.146	0.171	0.224	0.0945	0.553	0.431	0.396	0.105	0.787	0.338	0.949	0.137
O=C(c1cc(Cc2n[nH]c(=O)c3ccccc23)ccc1F)N1CCN(C(=O)C2CC2)CC1 [Olaparib] + COc1nnc2ccc(N3CCC(c4ccc(OCCN5CCN(C)C(=O)[C@H]5C)cc4)CC3)nn12 [AZD5153] (first compound max 10 µM, 7x7, partner max 1 µM)	-0.0582	-0.0557	0.0018	-0.0369	-0.0333	-0.0441	0.484	0.292	0.451	0.252	0.343	0.453	0.362	0.882	0.751	0.376	0.38	0.322	0.7	0.385
O=C(c1cc(Cc2n[nH]c(=O)c3ccccc23)ccc1F)N1CCN(C(=O)C2CC2)CC1 [Olaparib] + Cc1c2c(nn1C)CSCc1cc(n(C)n1)CSc1cc(c3ccccc3c1)OCCCc1c(C(=O)O)n(C)c3c-2c(Cl)ccc13 [AZD5991] (first compound max 10 µM, 7x7, partner max 1 µM)	0.0223	-0.0555	-0.0366	-0.0206	0.0434	-0.0091	0.329	0.168	0.0885	0.101	0.192	0.0008	0.339	0.993	0.979	0.107	0.163	0.128	0.785	0.128
N#Cc1cnc(Nc2cc(NC[C@H]3CNCCO3)c(C(F)(F)F)cn2)cn1 [SRA737] + C=CCn1c(=O)c2cnc(Nc3ccc(N4CCN(C)CC4)cc3)nc2n1-c1cccc(C(C)(C)O)n1 [AZD1775] (first compound max 10 µM, partner max 1 µM)	0.111	0.0589	0.0176	0.0146	0.0824	0.0306	0.97	0.349	0.841	0.655	0.711	0.809	0.318	1	0.988	0.226	0.456	0.64	0.631	0.465
N#Cc1cnc(Nc2cc(NC[C@H]3CNCCO3)c(C(F)(F)F)cn2)cn1 [SRA737] + CCc1c2c(nc3ccc(O)cc13)-c1cc3c(c(=O)n1C2)COC(=O)[C@]3(O)CC [SN-38] (first compound max 10 µM, 7x7, partner max 0.3 µM)	-0.0179	0.0694	-0.0004	0.0442	-0.0374	-0.0667	0.943	0.59	0.585	0.828	0.817	0.873	0.431	1	0.994	0.248	0.574	0.893	0.893	0.592
N#Cc1cnc(Nc2cc(NC[C@H]3CNCCO3)c(C(F)(F)F)cn2)cn1 [SRA737] + Nc1ccn([C@@H]2O[C@H](CO)[C@@H](O)C2(F)F)c(=O)n1 [Gemcitabine] (first compound max 10 µM, 7x7, partner max 0.3 µM)	-0.0293	0.035	0.0843	0.117	0.0489	0.0698	0.951	0.599	0.506	0.709	0.844	0.919	0.638	1	1	0.462	0.868	0.758	0.899	0.575
N#Cc1cnc(Nc2cc(NC[C@H]3CNCCO3)c(C(F)(F)F)cn2)cn1 [SRA737] + O=c1[nH]cc(F)c(=O)[nH]1 [5-Fluorouracil] (first compound max 10 µM, 7x7, partner max 20 µM)	-0.0088	-0.036	0.036	0.0215	0.0181	0.0188	0.478	0.161	0.448	0.528	0.559	0.77	0.381	1	0.967	0.145	0.21	0.628	0.654	0.34
